Test system: C57B16 mice
Assay: Forced swim test
Type: in vivo
Settings: 3 mg/kg and 5 mg/kg; n=8; FIG. 10B
Method: • 1. Fill a 12 cm diameter glass cylinder to 10 cm with 22° C. water. • 2. Place two animals simultaneously in individual side-by-side cylinders separated by an opaque screen. • 3. Place mice in the cylinders for 6 minutes. • 4. Observe the behaviour of the mice for the last 4-minutes of the 6-minute experimental session. • 5. Sessions are videotaped and scored blind, Immobility is scored by summing the time spent immobile; movements necessary to maintain the animals head above water were not scored with data from treated groups compared with data from the control group using nonpaired Student's t tests (two tailed). • 6. Animals are dried with paper towels and heat lamps. FST in Rats: Habituation Session (Day 1) • 1. On Day 1, […] prior to testing, place the animals in the experimental room 60 min before the beginning of the habituation session. Randomly assign animals to a drug treatment, but give all animals within a cage the same treatment. Make food and water available throughout the experiment. • 2. Weigh two animals individually, then place one rat in each of the two cylinders (20 cm in diameter×40 cm high) containing water (25° C.) for 15 min (habituation session). No scoring of immobility is performed during the habituation session. […]
Values are expressed as mean±S.E.M (n=8). Statistical difference was determined using a Mann Whitney non-parametric U-test. […]

## CCCCSc1ccc(C(SCCN(C)C)c2ccccc2)cc1 (single isomer, unassigned) [dextrorotary (+) enantiomer]
  antidepressant activity of separated enantiomer (time spent immobile, forced swim test): retains the antidepressant biologic activity

From US8461389B2, “Psycho-pharmaceuticals” (University College Dublin, National University of Ireland, …, priority 2008, dated 2013)
